In US12617818B2, “Compositions and methods for modulating myosin subfragment-2 coiled coil stability and methods for using them” (UNIVERSITY OF NORTH TEXAS, priority 2020, dated 2026):
Entries after “also recorded” stand apart in the source; their conditions may differ.

Tests used:
[1] = biological target: skeletal muscle myosin S2 peptide (MYH2) (Homo sapiens, UniProt Q9UKX2); assay: GFS, uncoiling of skeletal myosin S2 peptide dimer; type: biochemical; set-up: host or cells: chemical synthesis; conditions: for Force required to uncoil S2 molecule: length 10 nm, in presence of the anti-S2 peptide, ± SEM
Description: (§1) 3-aminopropyltriethoxysilane, acetone, coupling buffer (0.01 M pyridine in water with pH 6.0), 5% glutaraldehyde, quenching solution (1 M glycine in water with pH 7.0), blocking buffer (0.01 M Tris, 0.1% sodium azide, 0.1% bovine serum albumin, 0.15 M sodium chloride, and 0.001 M ethylenediaminetetraacetic acid with pH 7.0), wash buffer (0.01 M Tris, 0.1% sodium azide, 0.15 M sodium chloride, and 0.001 M ethylenediaminetetraacetic acid with pH 7.0) low salt buffer (0.1 M potassium chloride, 0.02 M imidazole, 5 mM magnesium chloride, with pH 7.0), 1-ethyl-3-(3-dimethyaminopropyl) carbodiimide, N-hydroxysuccinamide, iodoacetamide-succinimidyl ester, 8M urea solution (50 mM imidazole and 0.1 mM tris (2-carboxyethyl) phosphine with pH 7.0) monodisperse silica beads, glass slides, glass coverslips, vacuum grease, rabbit skeletal myosin, purified actin (G-actin), 1 μM human β-cardiac myosin S2 peptide, 1 μM human β-cardiac mutants myosin S2 peptide (E930del and E924K), 1 μM human skeletal myosin S2 peptide, 1 μM human smooth myosin S2 peptide, stabilizer peptide, and destabilizer peptide. A light microscope with an objective lens of 10× was mounted on an alt-azimuthal mount. A digital video camera of Sony, XCD-V60 was replaced with the ocular lenses. Extension springs on steel bracket held the alt-azimuthal mount suspended.
(§2) Gravitational force spectroscopy (GFS), is a single molecule force spectroscopy that utilizes gravitational force to measure absolute length of a single molecule at the given force calculated by the density of the bead suspending the molecule. This technique was discovered and developed in Root lab, which measures the forces in piconewton and sub-piconewton levels. Other than absolute length of a molecule, GFS measures force range required to uncoil, stretch or extend the molecule yielding a force-distance profile for the suspended molecule. Besides that, based on the force-distance profile, number of amino acids within the molecule can be calculated. […] The GFS allowed to test the flexibility or stability of a single molecule of myosin S2 peptide and also for the S2 peptides treated with anti-S2 peptides. Flexibility of myosin S2 is not dependent on assembly myosin as a thick filament or myosin in its single molecule form. The flexibility of myosin S2 region was reported to be similar in single molecule form or myosin in a thick filament assembly thus it could be conceived that the changes seen on flexibility of myosin S2 in presence of anti-S2 peptides would correlate to changes in myosin S2 flexibility for myosin in a thick filament form (Singh et al., 2018). The schematic diagram of GFS is shown below (schematic diagrams of GFS which has two modes: (FIG. 15) free-fall mode, (FIG. 16) rotational mode.
Free fall mode, another measurement variant of GFS which allows the user to get a force distance profile on a single molecule experiencing the gravitational force. Free fall mode allows a variable force by the virtue of gravity to be exerted on a single molecule. The GFS setup, light microscope with mounted camera on spring on alt-azimuthal platform, can be dropped. The start of free-fall mode force applied to the bead is zero or close to zero. […] As the platform goes towards equilibrium, trace of the acceleration decays. During the free fall mode, GFS has a single molecule which is suspended within an immobile edge and mobile bead will now experience the variable force which would be calculated by the product of mass of the bead and the acceleration of the GFS.
The product of the GFS acceleration and the mass of the bead will provide a force trace for the single molecule tethered between the immobile edge and mobile bead. The image processing would provide distance trace for the single molecule experiencing the free fall by the GFS. When this force trace is aligned with distance trace will yield the extension or the stretch experience by the single molecule under variable forces. […]

[2] = biological target: T1, smooth muscle myosin S2 peptide (MYH11) (Homo sapiens, UniProt P35749); assay: GFS, uncoiling of smooth myosin S2 peptide dimer; type: biochemical; conditions: for impact on mechanical stability of smooth muscle myosin S2 peptide: force distance curve vs control; for Force required to uncoil S2 molecule: length 10 nm, in presence of the anti-S2 peptide, ± SEM
T1 construct: host or cells: chemical synthesis
T1 sequence (P35749 with tags, fused parts or gaps): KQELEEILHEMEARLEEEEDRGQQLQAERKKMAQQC
Description: as §1
as §2, with “The flexibility of myosin S2 region was reported to be similar in single molecule form or myosin in a thick filament assembly thus it could be conceived that the changes seen on flexibility of myosin S2 in presence of anti-S2 peptides would correlate to changes in myosin S2 flexibility for myosin in a thick filament form (Singh et al., 2018). The schematic diagram of GFS is shown below (schematic diagrams of GFS which has two modes: (FIG. 15) free-fall mode, (FIG. 16) rotational mode.” left out
Free fall mode, another measurement variant of GFS which allows the user to get a force distance profile on a single molecule experiencing the gravitational force. […] During the free fall mode, GFS has a single molecule which is suspended within an immobile edge and mobile bead will now experience the variable force which would be calculated by the product of mass of the bead and the acceleration of the GFS. […]

skeletal muscle myosin S2 peptide (MYH2), sequence (Q9UKX2 918-953 limits assumed): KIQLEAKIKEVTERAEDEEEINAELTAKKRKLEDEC

Compound	Force required to uncoil S2 molecule [1]	Force required to uncoil S2 molecule ([1]; listed as destabilizer peptide)	decrease of force required to uncoil the coiled coil ([1]; vs absence of anti-S2 peptide)	impact on mechanical stability of smooth muscle myosin S2 peptide [2]	Force required to uncoil S2 molecule [2]	increase of force required to uncoil the coiled coil ([1]; vs absence of anti-S2 peptide)
CSCC[C@H](NC(=O)[C@H](CCC(=O)O)NC(=O)[C@H](CCCNC(=N)N)NC(=O)[C@H](CCC(=O)O)NC(=O)[C@H](CC(=O)O)NC(=O)[C@H](CCC(=O)O)NC(=O)[C@H](CC(C)C)NC(=O)[C@H](CCCNC(=N)N)NC(=O)[C@H](CCC(=O)O)NC(=O)[C@H](CC(N)=O)NC(=O)[C@H](CCSC)NC(=O)[C@@H](N)CCC(=O)O)C(=O)N[C@@H](CCCCN)C(=O)N[C@@H](C)C(=O)N[C@@H](CCC(=O)O)C(=O)N[C@@H](CC(C)C)C(=O)N[C@H](C(=O)N[C@@H](C)C(=O)N[C@@H](CCCCN)C(=O)O)[C@@H](C)O [Destabilizer]	1.84E−01 ± 4.00E−02 pN	1.84×10^−1±4.00×10^−2 pN	2.45 times	do not have an impact	4.51E−01 ± 2.98E−02 pN	
C[C@H](NC(=O)[C@H](CCCCN)NC(=O)[C@H](Cc1ccccc1)NC(=O)[C@H](CCCCN)NC(=O)[C@H](CCCCN)NC(=O)[C@H](CCCCN)NC(=O)[C@H](CCCCN)NC(=O)[C@H](CCCCN)NC(=O)[C@H](CCCCN)NC(=O)[C@H](CCCCN)NC(=O)[C@@H](N)CCCCN)C(=O)N[C@@H](CCCCN)C(=O)N[C@@H](CCCCN)C(=O)N[C@@H](CCCCN)C(=O)N[C@@H](CCCCN)C(=O)N[C@@H](CCCCN)C(=O)N[C@@H](CCCCN)C(=O)O [Stabilizer]	6.28E−01 ± 4.32E−02 pN			do not have an impact; also recorded: no effect	4.96E−01 ± 7.60E−02 pN	1.40 times
